In experiment [1] the test system is M. smegmatis. As to the kind of experiment: Minimum inhibitory concentration, agar streak test on TGY agar (M. smegmatis). To be noted: Mycolicibacterium smegmatis, NRRLB612, NRRL B-612, 37° C., 24 and 48 hr., read-out: Antimicrobial agent MIC. In kind it is cell-based. As to the method:
(§1) Minimum inhibitory concentrations for microorganisms. The F. equiseti NRRL 5537 antibiotic was diluted in ethanol. Streptomycin sulfate and isoniazid were diluted in water. Amounts up to 1 ml. were added to TGY agar to provide the desired double dilution test concentrations. Minimum inhibitory concentrations of the antimicrobial agents were determined by streaking a loopful of standardized suspensions of 24- to 48-hr. cultures of selected microorganisms onto the surface of 20 ml. of the modified TGY agar in a standard petri dish. Microorganisms were cultured on TGY agar slants and diluted with TGY broth to yield a transmittance of about 90% at 600 nm. in a Spectronic-20 spectrophotometer. All cultures grew on control plates containing 1 ml. ethanol per 100 ml. TGY agar. Bacteria were incubated at 37° C. and the fungi at room temperature.

Experiment [2] has as its system Bacillus subtilis. As to the kind of experiment: Minimum inhibitory concentration, agar streak test on TGY agar (B. subtilis). In kind it is cell-based. How it is done:
as §1

Experiment [3] deals with Mycobacterium phlei. The experiment is described as follows: Minimum inhibitory concentration, agar streak test on TGY agar (M. phlei). It counts as cell-based. To be noted: Mycolicibacterium phlei, TGY agar, 37° C., 24 and 48 hr., read-out: Antimicrobial agent MIC. As to the method:
as §1

The subject of experiment [4] is Staphylococcus aureus. As to the kind of experiment: Minimum inhibitory concentration, agar streak test on TGY agar (S. aureus). In kind it is cell-based. How it is done: as §1
Experiment [5] concerns Neisseria perflava. As to the kind of experiment: Minimum inhibitory concentration, agar streak test on TGY agar (N. perflava). In kind it is cell-based. How it is done: as §1
Experiment [6] concerns M. rhodochrus. The experiment is described as follows: Minimum inhibitory concentration, agar streak test on TGY agar (M. rhodochrus). In kind it is cell-based. To be noted: NRRL B-2141, 37° C., 24 and 48 hr., read-out: Antimicrobial agent MIC. As to the method: as §1
Experiment [7] concerns bacteria. The note with it: cited from earlier work.
The mark [8] stands for this setting: NRRLB543, NRRL B-543, TGY agar, 37° C., 24 and 48 hr., read-out: Antimicrobial agent MIC.

Values after ≈ are worked out from the molar mass of the structure shown. Read-outs that look alike come from different tables or passages of the source.

For `NNC(=O)c1ccncc1` [Isoniazid], the MIC in experiment [1] is 4 µg/mL (≈ 29.2 µM); in experiment [2] (B. subtilis strains, Table 1 footnote 1 (explains the dashes), read-out: not inhibited by (isoniazid per ml. medium)), greater than 128 µg/mL; in experiment [2] (setting [8]) it was 128 µg/mL (≈ 933 µM); in experiment [3] (NRRLB609, NRRL B-609), 4 µg/mL (≈ 29.2 µM); in experiment [3] (NRRLB610, NRRL B-610), 4 µg/mL (≈ 29.2 µM); in experiment [3] (NRRLB4051, NRRL B-4051), 4 µg/mL (≈ 29.2 µM). In addition, the MIC in experiment [4] (S. aureus strains, Table 1 footnote 1 (explains the dashes), read-out: not inhibited by (isoniazid per ml. medium)) is greater than 128 µg/mL; in experiment [5] (N. perflava strains, Table 1 footnote 1 (explains the dashes), read-out: not inhibited by (isoniazid per ml. medium)), greater than 128 µg/mL; in experiment [6], 64 µg/mL (≈ 467 µM).

As for `O=C1C=CCO1` [butenolide], the antibacterial properties result in experiment [7] is recorded as “either lack or only exhibit weak antibacterial properties”.

Consider `[H]/N=C(/N)N[C@H]1[C@H](O)[C@@H](O)[C@H](O[C@@H]2O[C@@H](C)[C@](O)(C=O)[C@H]2O[C@@H]2O[C@@H](CO)[C@H](O)[C@@H](O)[C@@H]2NC)[C@@H](N/C(N)=N\[H])[C@@H]1O` [Streptomycin], for which the MIC came to 2 µg/mL (≈ 3.44 µM) in experiment [1]; 4 µg/mL (≈ 6.88 µM) in experiment [2] (setting [8]); 8 µg/mL (≈ 13.8 µM) in experiment [2] (NRRLB558, NRRL B-558, TGY agar, 37° C., 24 and 48 hr., read-out: Antimicrobial agent MIC); 2 µg/mL (≈ 3.44 µM) in experiment [2] (NRRLB644, NRRL B-644, TGY agar, 37° C., 24 and 48 hr., read-out: Antimicrobial agent MIC); 2 µg/mL (≈ 3.44 µM) in experiment [2] (NRRLB765, NRRL B-765, TGY agar, 37° C., 24 and 48 hr., read-out: Antimicrobial agent MIC); 8 µg/mL (≈ 13.8 µM) in experiment [2] (NRRLB972, NRRL B-972, TGY agar, 37° C., 24 and 48 hr., read-out: Antimicrobial agent MIC). Further, the MIC in experiment [2] (NRRLB1650, NRRL B-1650, TGY agar, 37° C., 24 and 48 hr., read-out: Antimicrobial agent MIC) was found to be 8 µg/mL (≈ 13.8 µM); in experiment [2] (NRRLB3284, NRRL B-3284, TGY agar, 37° C., 24 and 48 hr., read-out: Antimicrobial agent MIC), 4 µg/mL (≈ 6.88 µM); in experiment [3] (NRRLB609, NRRL B-609), 2 µg/mL (≈ 3.44 µM); in experiment [3] (NRRLB610, NRRL B-610), 2 µg/mL (≈ 3.44 µM); in experiment [3] (NRRLB4051, NRRL B-4051), 2 µg/mL (≈ 3.44 µM); in experiment [4] (NRRLB120, NRRL B-120, TGY agar, 37° C., 24 and 48 hr., read-out: Antimicrobial agent MIC), 2 µg/mL (≈ 3.44 µM). Further, the MIC in experiment [4] (NRRLB124, NRRL B-124, TGY agar, 37° C., 24 and 48 hr., read-out: Antimicrobial agent MIC) turned out to be 4 µg/mL (≈ 6.88 µM); in experiment [4] (NRRLB313, NRRL B-313, TGY agar, 37° C., 24 and 48 hr., read-out: Antimicrobial agent MIC), 2 µg/mL (≈ 3.44 µM); in experiment [4] (NRRLB678, NRRL B-678, TGY agar, 37° C., 24 and 48 hr., read-out: Antimicrobial agent MIC), 8 µg/mL (≈ 13.8 µM); in experiment [4] (NRRLB1317, NRRL B-1317, TGY agar, 37° C., 24 and 48 hr., read-out: Antimicrobial agent MIC) it was 4 µg/mL (≈ 6.88 µM); in experiment [4] (NRRLB1318, NRRL B-1318, TGY agar, 37° C., 24 and 48 hr., read-out: Antimicrobial agent MIC), 8 µg/mL (≈ 13.8 µM); in experiment [4] (NRRLB2746, NRRL B-2746, TGY agar, 37° C., 24 and 48 hr., read-out: Antimicrobial agent MIC) it was 2 µg/mL (≈ 3.44 µM). Also, the MIC was determined as 2 µg/mL (≈ 3.44 µM) in experiment [5] (NRRLB1458, NRRL B-1458, TGY agar, 37° C., 24 and 48 hr., read-out: Antimicrobial agent MIC); 2 µg/mL (≈ 3.44 µM) in experiment [5] (NRRLB1788, NRRL B-1788, TGY agar, 37° C., 24 and 48 hr., read-out: Antimicrobial agent MIC); 2 µg/mL (≈ 3.44 µM) in experiment [5] (NRRLB1789, NRRL B-1789, TGY agar, 37° C., 24 and 48 hr., read-out: Antimicrobial agent MIC); 2 µg/mL (≈ 3.44 µM) in experiment [5] (NRRLB1790, NRRL B-1790, TGY agar, 37° C., 24 and 48 hr., read-out: Antimicrobial agent MIC); 4 µg/mL (≈ 6.88 µM) in experiment [5] (NRRLB1791, NRRL B-1791, TGY agar, 37° C., 24 and 48 hr., read-out: Antimicrobial agent MIC); 2 µg/mL (≈ 3.44 µM) in experiment [6].
